# Assay results as given in the supplement of paper PMC10307832.
# Tests used:
# Experiment in all cases: relative viability (nuclei count vs DMSO), 5 days (fraction); higher = more cells survive
# NCI-H596 = system: NCI-H596
# Outline: (§1)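 For relative viability, nuclei counts in treated wells were divided by those in vehicle wells. Lung cancer cell lines had been pin-tool dosed in 1536-well plates the day after seeding and cultured for 5 days, then fixed and stained in one step (final 0.05% Triton X-100, 1% formaldehyde, 1 ug/ml Hoechst) and imaged at 4×. Doses were one drug alone or a fixed anchor-drug dose plus five library-drug doses (not always all listed) in √10 steps, and values are duplicate-plate medians.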
# HOP-62 = system: HOP-62
# Outline: as §1
# NCI-H1944 = system: NCI-H1944
# Outline: as §1
# NCI-H1437 = system: NCI-H1437
# Outline: as §1
# NCI-H3122 = system: NCI-H3122
# Outline: as §1
# COR-L23 = system: COR-L23
# Outline: as §1
# NCI-H661 = system: NCI-H661
# Outline: as §1
# NCI-H1650 = system: NCI-H1650
# Outline: as §1
# NCI-H1395 = system: NCI-H1395
# Outline: as §1
# NCI-H2087 = system: NCI-H2087
# Outline: as §1
# NCI-H1793 = system: NCI-H1793
# Outline: as §1
# NCI-H441 = system: NCI-H441
# Outline: as §1
# NCI-H2126 = system: NCI-H2126
# Outline: as §1
# EPLC-272H = system: EPLC-272H
# Outline: as §1
# HCC-78 = system: HCC-78
# Outline: as §1
# NCI-H1666 = system: NCI-H1666
# Outline: as §1
# ChaGo-K-1 = system: ChaGo-K-1
# Outline: as §1
# LXF-289 = system: LXF-289
# Outline: as §1
# HARA = system: HARA
# Outline: as §1
# LCLC-97TM1 = system: LCLC-97TM1
# Outline: as §1
# PC-14 = system: PC-14
# Outline: as §1
# H3255 = system: H3255
# Outline: as §1
# NCI-H2085 = system: NCI-H2085
# Outline: as §1
smiles,measurement,setting,value
Cc1csc(=NC2CCCCC2)n1/N=C/c1ccc(O)c(O)c1O [MIM1] + O=C(CCCCCCC(=O)Nc1ccccc1)NO [Vorinostat] (partner 1 µM),relative viability,NCI-H596; first compound 0.2 µM,0.719
same,relative viability,NCI-H596; first compound 0.6325 µM,0.722
same,relative viability,NCI-H596; first compound 2 µM,0.561
same,relative viability,NCI-H596; first compound 6.325 µM,0.559
same,relative viability,NCI-H596; first compound 20 µM,0.337
same,relative viability,HOP-62; first compound 0.2 µM,0.655
same,relative viability,HOP-62; first compound 0.6325 µM,0.469
same,relative viability,HOP-62; first compound 2 µM,0.541
same,relative viability,HOP-62; first compound 6.325 µM,0.379
same,relative viability,HOP-62; first compound 20 µM,0.0827
same,relative viability,NCI-H1944; first compound 0.2 µM,0.548
same,relative viability,NCI-H1944; first compound 0.6325 µM,0.499
same,relative viability,NCI-H1944; first compound 2 µM,0.39
same,relative viability,NCI-H1944; first compound 6.325 µM,0.428
same,relative viability,NCI-H1944; first compound 20 µM,0.228
same,relative viability,NCI-H1437; first compound 0.2 µM,0.712
same,relative viability,NCI-H1437; first compound 0.6325 µM,0.843
same,relative viability,NCI-H1437; first compound 2 µM,0.833
same,relative viability,NCI-H1437; first compound 6.325 µM,0.313
same,relative viability,NCI-H1437; first compound 20 µM,0.197
same,relative viability,NCI-H3122; first compound 0.2 µM,0.959
same,relative viability,NCI-H3122; first compound 0.6325 µM,0.894
same,relative viability,NCI-H3122; first compound 2 µM,1.02
same,relative viability,NCI-H3122; first compound 6.325 µM,0.618
same,relative viability,NCI-H3122; first compound 20 µM,0.127
same,relative viability,COR-L23; first compound 0.2 µM,0.42
same,relative viability,COR-L23; first compound 0.6325 µM,0.441
same,relative viability,COR-L23; first compound 2 µM,0.371
same,relative viability,COR-L23; first compound 6.325 µM,0.314
same,relative viability,COR-L23; first compound 20 µM,0.162
same,relative viability,NCI-H661; first compound 0.2 µM,0.764
same,relative viability,NCI-H661; first compound 0.6325 µM,0.748
same,relative viability,NCI-H661; first compound 2 µM,0.742
same,relative viability,NCI-H661; first compound 6.325 µM,0.406
same,relative viability,NCI-H661; first compound 20 µM,0.292
same,relative viability,NCI-H1650; first compound 0.2 µM,0.617
same,relative viability,NCI-H1650; first compound 0.6325 µM,0.562
same,relative viability,NCI-H1650; first compound 2 µM,0.451
same,relative viability,NCI-H1650; first compound 6.325 µM,0.119
same,relative viability,NCI-H1650; first compound 20 µM,0.179
same,relative viability,NCI-H1395; first compound 0.2 µM,0.799
same,relative viability,NCI-H1395; first compound 0.6325 µM,0.626
same,relative viability,NCI-H1395; first compound 2 µM,0.641
same,relative viability,NCI-H1395; first compound 6.325 µM,0.422
same,relative viability,NCI-H1395; first compound 20 µM,0.322
same,relative viability,NCI-H2087; first compound 0.2 µM,0.68
same,relative viability,NCI-H2087; first compound 0.6325 µM,0.536
same,relative viability,NCI-H2087; first compound 2 µM,0.877
same,relative viability,NCI-H2087; first compound 6.325 µM,0.596
same,relative viability,NCI-H2087; first compound 20 µM,0.497
same,relative viability,NCI-H1793; first compound 0.2 µM,0.783
same,relative viability,NCI-H1793; first compound 2 µM,0.732
same,relative viability,NCI-H1793; first compound 6.325 µM,0.649
same,relative viability,NCI-H1793; first compound 20 µM,0.553
same,relative viability,NCI-H441; first compound 0.2 µM,0.748
same,relative viability,NCI-H441; first compound 0.6325 µM,0.798
same,relative viability,NCI-H441; first compound 2 µM,0.974
same,relative viability,NCI-H441; first compound 6.325 µM,0.212
same,relative viability,NCI-H441; first compound 20 µM,0.191
same,relative viability,NCI-H2126; first compound 0.2 µM,0.745
same,relative viability,NCI-H2126; first compound 0.6325 µM,0.454
same,relative viability,NCI-H2126; first compound 2 µM,0.838
same,relative viability,NCI-H2126; first compound 6.325 µM,0.711
same,relative viability,NCI-H2126; first compound 20 µM,0.404
same,relative viability,EPLC-272H; first compound 0.2 µM,0.509
same,relative viability,EPLC-272H; first compound 0.6325 µM,0.523
same,relative viability,EPLC-272H; first compound 2 µM,0.343
same,relative viability,EPLC-272H; first compound 6.325 µM,0.125
same,relative viability,EPLC-272H; first compound 20 µM,0.126
same,relative viability,HCC-78; first compound 0.2 µM,0.452
same,relative viability,HCC-78; first compound 2 µM,0.38
same,relative viability,HCC-78; first compound 6.325 µM,0.424
same,relative viability,HCC-78; first compound 20 µM,0.438
same,relative viability,NCI-H1666; first compound 0.2 µM,1.01
same,relative viability,NCI-H1666; first compound 0.6325 µM,0.922
same,relative viability,NCI-H1666; first compound 2 µM,1.08
same,relative viability,NCI-H1666; first compound 6.325 µM,0.769
same,relative viability,NCI-H1666; first compound 20 µM,0.477
same,relative viability,ChaGo-K-1; first compound 0.2 µM,0.714
same,relative viability,ChaGo-K-1; first compound 0.6325 µM,0.449
same,relative viability,ChaGo-K-1; first compound 2 µM,0.699
same,relative viability,ChaGo-K-1; first compound 6.325 µM,0.543
same,relative viability,ChaGo-K-1; first compound 20 µM,0.157
same,relative viability,LXF-289; first compound 0.2 µM,0.777
same,relative viability,LXF-289; first compound 0.6325 µM,0.462
same,relative viability,LXF-289; first compound 2 µM,0.665
same,relative viability,LXF-289; first compound 6.325 µM,0.499
same,relative viability,LXF-289; first compound 20 µM,0.304
same,relative viability,HARA; first compound 0.2 µM,0.523
same,relative viability,HARA; first compound 0.6325 µM,0.467
same,relative viability,HARA; first compound 2 µM,0.56
same,relative viability,HARA; first compound 6.325 µM,0.511
same,relative viability,HARA; first compound 20 µM,0.0696
same,relative viability,LCLC-97TM1; first compound 0.2 µM,0.594
same,relative viability,LCLC-97TM1; first compound 0.6325 µM,0.23
same,relative viability,LCLC-97TM1; first compound 2 µM,0.719
same,relative viability,LCLC-97TM1; first compound 6.325 µM,0.236
same,relative viability,LCLC-97TM1; first compound 20 µM,0.0643
same,relative viability,PC-14; first compound 0.2 µM,0.746
same,relative viability,PC-14; first compound 0.6325 µM,0.616
same,relative viability,PC-14; first compound 2 µM,0.478
same,relative viability,PC-14; first compound 6.325 µM,0.456
same,relative viability,PC-14; first compound 20 µM,0.118
same,relative viability,H3255; first compound 0.2 µM,0.776
same,relative viability,H3255; first compound 0.6325 µM,0.901
same,relative viability,H3255; first compound 2 µM,0.759
same,relative viability,H3255; first compound 6.325 µM,0.67
same,relative viability,H3255; first compound 20 µM,0.321
same,relative viability,NCI-H2085; first compound 0.2 µM,0.765
same,relative viability,NCI-H2085; first compound 0.6325 µM,0.728
same,relative viability,NCI-H2085; first compound 2 µM,0.763
same,relative viability,NCI-H2085; first compound 6.325 µM,0.547
same,relative viability,NCI-H2085; first compound 20 µM,0.563
